ChEMBL document CHEMBL1201862, “PubChem BioAssay data set” (2004)
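Method: 48-hour compound exposure of cells in 96-well plates, five concentrations, linear interpolation of endpoints. GI50 is the concentration that inhibits growth by half.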 Active and inactive are the calls of the source. Rule as the data show it: active = GI50 up to about 1.1 µM and inactive = higher.

What was measured:
Test in all cases: inhibition of tumour cell growth, NCI panel, 48 h
RPMI-8226 = system: RPMI-8226
UO-31 = system: UO-31
PC-3 = system: PC-3
MDA-MB-435 = system: MDA-MB-435
NCI-H522 = system: NCI-H522
SK-OV-3 = system: SK-OV-3
A498 = system: A498
OVCAR-3 = system: OVCAR-3
K562 = system: K562
UACC-257 = system: UACC-257
HT-29 = system: HT-29
786-0 = system: 786-0
SK-MEL-5 = system: SK-MEL-5
HOP-92 = system: HOP-92
HCT-15 = system: HCT-15
HOP-62 = system: HOP-62
HCC 2998 = system: HCC 2998
NCI-H226 = system: NCI-H226
M14 = system: M14
SNB-19 = system: SNB-19
HL-60 = system: HL-60
KM12 = system: KM12
U-251 = system: U-251
MCF7 = system: MCF7
LOX IMVI = system: LOX IMVI
ACHN = system: ACHN
OVCAR-4 = system: OVCAR-4
UACC-62 = system: UACC-62
NCI/ADR-RES = system: NCI/ADR-RES
MDA-MB-231 = system: MDA-MB-231
T47D = system: T47D
TK-10 = system: TK-10
NCI-H23 = system: NCI-H23
CCRF-CEM = system: CCRF-CEM
SW-620 = system: SW-620
OVCAR-8 = system: OVCAR-8
SK-MEL-28 = system: SK-MEL-28
HCT-116 = system: HCT-116
MDA-N = system: MDA-N
IGROV-1 = system: IGROV-1
RXF 393 = system: RXF 393
SK-MEL-2 = system: SK-MEL-2
A549 = system: A549
NCI-H460 = system: NCI-H460
Hs-578T = system: Hs-578T
DU-145 = system: DU-145
EKVX = system: EKVX
COLO 205 = system: COLO 205
SF-295 = system: SF-295
OVCAR-5 = system: OVCAR-5
SF-268 = system: SF-268
SF-539 = system: SF-539
SN12C = system: SN12C
MOLT-4 = system: MOLT-4

## CC(C)(C)c1cc2c(c(C(C)(C)C)c1O)CC(=O)O2
RPMI-8226
  GI50: 23.6 µM (inactive)
UO-31
  GI50: 26.3 µM (inactive)
PC-3
  GI50: 27.2 µM (inactive)
MDA-MB-435
  GI50: 27 µM (inactive)
NCI-H522
  GI50: 46 µM (inactive)
SK-OV-3
  GI50: 48.8 µM (inactive)
A498
  GI50: 32.1 µM (inactive)
OVCAR-3
  GI50: 16.6 µM (inactive)
K562
  GI50: 34 µM (inactive)
UACC-257
  GI50: 24.6 µM (inactive)
HT-29
  GI50: 28.3 µM (inactive)
786-0
  GI50: 26.5 µM (inactive)
SK-MEL-5
  GI50: 17.1 µM (inactive)
HOP-92
  GI50: < 0.01 µM (active)
HCT-15
  GI50: 45.9 µM
HOP-62
  GI50: 30.3 µM (inactive)
HCC 2998
  GI50: 35 µM (inactive)
NCI-H226
  GI50: 30.8 µM (inactive)
M14
  GI50: 25.8 µM (inactive)
SNB-19
  GI50: 34.7 µM (inactive)
HL-60
  GI50: 34.6 µM (inactive)
KM12
  GI50: 20.7 µM (inactive)
U-251
  GI50: 41.9 µM (inactive)
MCF7
  GI50: 35.6 µM (inactive)
LOX IMVI
  GI50: 38.5 µM (inactive)
ACHN
  GI50: 22.8 µM (inactive)
OVCAR-4
  GI50: 27.7 µM (inactive)
UACC-62
  GI50: 23.2 µM (inactive)
NCI/ADR-RES
  GI50: 21.1 µM (inactive)
MDA-MB-231
  GI50: 24.5 µM (inactive)
T47D
  GI50: 23.2 µM (inactive)
TK-10
  GI50: 30.4 µM (inactive)
NCI-H23
  GI50: 19.8 µM (inactive)
CCRF-CEM
  GI50: 29.6 µM (inactive)
SW-620
  GI50: 42.4 µM (inactive)
OVCAR-8
  GI50: 32.2 µM (inactive)
SK-MEL-28
  GI50: 40.6 µM (inactive)
HCT-116
  GI50: 30.1 µM (inactive)
MDA-N
  GI50: 34.9 µM (inactive)
IGROV-1
  GI50: 40.1 µM (inactive)
RXF 393
  GI50: 22.1 µM (inactive)
SK-MEL-2
  GI50: 21.5 µM (inactive)
A549
  GI50: 31.2 µM (inactive)
NCI-H460
  GI50: 37.7 µM (inactive)
Hs-578T
  GI50: 26.4 µM (inactive)
DU-145
  GI50: 47.5 µM (inactive)
EKVX
  GI50: 30.8 µM (inactive)
COLO 205
  GI50: 22.2 µM (inactive)
SF-295
  GI50: 32.2 µM (inactive)
OVCAR-5
  GI50: 71.6 µM (inactive)
SF-268
  GI50: 44.4 µM (inactive)
SF-539
  GI50: 23.2 µM (inactive)
SN12C
  GI50: 34.8 µM (inactive)
MOLT-4
  GI50: 35.1 µM (inactive)
